Measured values reported in patent EP4562004B1, “NOVEL 7-SUBSTITUTED INDOLE SULFONAMIDE DERIVATIVES” (F. Hoffmann-La Roche AG, priority 2022, dated 2024).

Biological target: human GPR17 short isoform (Homo sapiens, UniProt Q13304)
Experiment: GPR17 cAMP assay (antagonist mode, TR-FRET cAMP detection)
Assay type: cell-based
Details: CHO-K1 cells stably expressing human GPR17 short isoform; with EC80 concentration of agonist MDL29,951, IBMX 0.5mM, forskolin 15µM; normalized to reference antagonist; read-out: hGPR17 cAMP IC50
Experimental: CHO-K1 cells stably expressing vector containing untagged human GPR17 short isoform (Roche) were cultured at 37°C / 5% CO2 in DMEM (Dulbecco's Modified Eagle Medium):F-12 (1:1) supplemented with 10% foetal bovine serum and 400 µg/ml Geneticin.
Changes in intracellular cyclic adenosine monophosphate (cAMP) levels were quantified using the Nano-TRF Detection Assay kit (Roche Diagnostics, Cat. No. 05214386001). This assay allows for direct cAMP quantification in a homogeneous solution. cAMP is detected based on time-resolved fluorescence energy transfer (TR-FRET) and competitive binding of ruthenylated cAMP and endogenous cAMP to an anti-cAMP monoclonal antibody labeled with AlexaFluor-700. The Ruthenium complex serves as the FRET donor and transfers energy to AlexaFluor-700. The FRET signal is inversely proportional to the cAMP concentration.
CHO-GPR17S cells were detached with Accutase and resuspended in assay buffer consisting of Hank's Balanced Salt Solution (HBSS), 10mM HEPES (4-(2-hydroxyethyl) piperazine-1-ethanesulfonic acid solution) and 0.1% bovine serum albumin (pH 7.4). The cells were seeded in black 384-well plates (Corning) at a density of 10'000 cells / 20µl assay buffer until the addition of compounds.
Test antagonist compounds were serially diluted in dimethyl sulfoxide (DMSO) and spotted in 384-well plates. The compounds were then diluted in HBSS buffer supplemented with an EC80 concentration of MDL29,951 (3-(2-Carboxy-4,6-dichloroindol-3-yl)propionic acid) (GPR17 agonist) plus 3-Isobutyl-1-methylxanthine (IBMX) (0.5mM final concentration) and added to the cells at room temperature. Forskolin (15µM final concentration) was added 5 minutes after the test compounds and the cells were incubated at room temperature for 30 minutes. The assay was stopped by adding cAMP detection mix (containing detergents for cell lysis) for 90 minutes at room temperature.
Cellular cAMP was measured using a Paradigm reader (Molecular Devices). The raw data was used to calculate the FRET signal based on the assay's P-factor as per cAMP kit instructions. The data was normalized to the maximal activity of a reference antagonist and dose response curves were fitted to the percent activity of the test compounds using a sigmoidal dose response model (Genedata Screener).
Results in the hGPR17 cAMP assay are provided for compounds of formula I in Table 1 Table 1: […]

Chain of human GPR17 short isoform (Q13304 29-367): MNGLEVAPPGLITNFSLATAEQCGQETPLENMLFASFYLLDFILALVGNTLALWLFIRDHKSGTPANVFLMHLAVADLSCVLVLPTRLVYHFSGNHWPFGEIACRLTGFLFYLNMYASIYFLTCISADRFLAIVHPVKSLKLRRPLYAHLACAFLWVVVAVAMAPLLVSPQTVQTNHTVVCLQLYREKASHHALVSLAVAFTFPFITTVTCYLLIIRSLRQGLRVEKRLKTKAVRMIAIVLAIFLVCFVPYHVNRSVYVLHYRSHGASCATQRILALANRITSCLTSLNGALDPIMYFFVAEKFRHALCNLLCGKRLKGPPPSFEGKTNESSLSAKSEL

IC50	Compound
23 nM	COc1nc(NS(=O)(=O)c2c[nH]c3c(-n4nccn4)c(Br)ccc23)nc(OC)c1OCC(F)F [Example 30, 6-bromo-N-[5-(2,2-difluoroethoxy)-4,6-dimethoxy-pyrimidin-2-yl]-7-(triazol-2-yl)-1H-indole-3-sulfonamide]
30 nM	COc1nc(NS(=O)(=O)c2c[nH]c3c(-n4nccn4)c(Br)ccc23)nc(OC)c1C1CC1C#N (stereo not shown) [Example 31, 6-bromo-N-[5-(2-cyanocyclopropyl)-4,6-dimethoxy-pyrimidin-2-yl]-7-(triazol-2-yl)-1H-indole-3-sulfonamide]
69 nM	COc1nc(NS(=O)(=O)c2c[nH]c3c(-n4nccn4)c(F)ccc23)nc(OC)c1CC(F)F [Example 32, N-[5-(2,2-difluoroethyl)-4,6-dimethoxy-pyrimidin-2-yl]-6-fluoro-7-(triazol-2-yl)-1H-indole-3-sulfonamide]
141 nM	COc1nc(NS(=O)(=O)c2c[nH]c3c(-n4nccn4)c(F)ccc23)nc(OC)c1OCCF [Example 33, 6-fluoro-N-[5-(2-fluoroethoxy)-4,6-dimethoxy-pyrimidin-2-yl]-7-(triazol-2-yl)-1H-indole-3-sulfonamide]
226 nM	COc1nc(NS(=O)(=O)c2c[nH]c3c(-n4nccn4)c(F)ccc23)nc(OC)c1OC(F)F [Example 34, N-[5-(difluoromethoxy)-4,6-dimethoxy-pyrimidin-2-yl]-6-fluoro-7-(triazol-2-yl)-1H-indole-3-sulfonamide]
126 nM	COc1nc(NS(=O)(=O)c2c[nH]c3c(-n4nccn4)c(F)ccc23)nc(OC)c1OCC(F)F [Example 35, N-[5-(2,2-difluoroethoxy)-4,6-dimethoxy-pyrimidin-2-yl]-6-fluoro-7-(triazol-2-yl)-1H-indole-3-sulfonamide]
82 nM	COc1nc(NS(=O)(=O)c2c[nH]c3c(-n4nccn4)c(F)ccc23)nc(OC)c1C1CC1C#N (stereo not shown) [Example 36, N-[5-(2-cyanocyclopropyl)-4,6-dimethoxy-pyrimidin-2-yl]-6-fluoro-7-(triazol-2-yl)-1H-indole-3-sulfonamide]
60 nM	COc1nc(NS(=O)(=O)c2c[nH]c3c(-n4cncn4)c(Cl)ccc23)nc(OC)c1CC(F)F [Example 37, 6-chloro-N-[5-(2,2-difluoroethyl)-4,6-dimethoxy-pyrimidin-2-yl]-7-(1,2,4-triazol-1-yl)-1H-indole-3-sulfonamide]
34 nM	COc1nc(NS(=O)(=O)c2c[nH]c3c(-n4ncc(C)n4)c(Cl)ccc23)nc(OC)c1OCC(F)F [Example 38, 6-chloro-N-[5-(2,2-difluoroethoxy)-4,6-dimethoxy-pyrimidin-2-yl]-7-(4-methyltriazol-2-yl)-1H-indole-3-sulfonamide]
55 nM	COc1nc(NS(=O)(=O)c2c[nH]c3c(-n4ncc(C)n4)c(Cl)ccc23)nc(OC)c1OCCF [Example 39, 6-chloro-N-[5-(2-fluoroethoxy)-4,6-dimethoxy-pyrimidin-2-yl]-7-(4-methyltriazol-2-yl)-1H-indole-3-sulfonamide]
40 nM	COc1nc(NS(=O)(=O)c2c[nH]c3c(-n4ccnn4)c(Cl)ccc23)nc(OC)c1CC(F)F [Example 40, 6-chloro-N-[5-(2,2-difluoroethyl)-4,6-dimethoxy-pyrimidin-2-yl]-7-(triazol-1-yl)-1H-indole-3-sulfonamide]
64 nM	COc1nc(NS(=O)(=O)c2c[nH]c3c(-n4nccn4)c(C(F)F)ccc23)nc(OC)c1OCCF [Example 41, 6-(difluoromethyl)-N-[5-(2-fluoroethoxy)-4,6-dimethoxy-pyrimidin-2-yl]-7-(triazol-2-yl)-1H-indole-3-sulfonamide]
50 nM	COc1nc(NS(=O)(=O)c2c[nH]c3c(-n4nccn4)c(C(F)F)ccc23)nc(OC)c1CC(F)F [Example 42, N-[5-(2,2-difluoroethyl)-4,6-dimethoxy-pyrimidin-2-yl]-6-(difluoromethyl)-7-(triazol-2-yl)-1H-indole-3-sulfonamide]
29 nM	COc1nc(NS(=O)(=O)c2c[nH]c3c(-n4cc(C)cn4)c(Cl)ccc23)nc(OC)c1OCC(F)F [Example 43, 6-chloro-N-[5-(2,2-difluoroethoxy)-4,6-dimethoxy-pyrimidin-2-yl]-7-(4-methylpyrazol-1-yl)-1H-indole-3-sulfonamide]
23 nM	COc1nc(NS(=O)(=O)c2c[nH]c3c(-n4ccc(C)n4)c(Cl)ccc23)nc(OC)c1OCC(F)F [Example 44, 6-chloro-N-[5-(2,2-difluoroethoxy)-4,6-dimethoxy-pyrimidin-2-yl]-7-(3-methylpyrazol-1-yl)-1H-indole-3-sulfonamide]
25 nM	COc1nc(NS(=O)(=O)c2c[nH]c3c(-n4cc(F)cn4)c(Cl)ccc23)nc(OC)c1OCC(F)F [Example 45, 6-chloro-N-[5-(2,2-difluoroethoxy)-4,6-dimethoxy-pyrimidin-2-yl]-7-(4-fluoropyrazol-1-yl)-1H-indole-3-sulfonamide]
45 nM	COc1nc(NS(=O)(=O)c2c[nH]c3c(-n4nccc4C)c(Cl)ccc23)nc(OC)c1OCC(F)F [Example 46, 6-chloro-N-[5-(2,2-difluoroethoxy)-4,6-dimethoxy-pyrimidin-2-yl]-7-(5-methylpyrazol-1-yl)-1H-indole-3-sulfonamide]
26 nM	COc1nc(NS(=O)(=O)c2c[nH]c3c(-n4cc(F)cn4)c(Cl)ccc23)nc(OC)c1OCCF [Example 47, 6-chloro-N-[5-(2-fluoroethoxy)-4,6-dimethoxy-pyrimidin-2-yl]-7-(4-fluoropyrazol-1-yl)-1H-indole-3-sulfonamide]
69 nM	COc1nc(NS(=O)(=O)c2c[nH]c3c(-n4cc(F)cn4)c(Cl)ccc23)nc(OC)c1OC(F)F [Example 48, 6-chloro-N-[5-(difluoromethoxy)-4,6-dimethoxy-pyrimidin-2-yl]-7-(4-fluoropyrazol-1-yl)-1H-indole-3-sulfonamide]
108 nM	COc1nc(NS(=O)(=O)c2c[nH]c3c(-n4cccn4)c(C(F)F)ccc23)nc(OC)c1OC(F)F [Example 49, N-[5-(difluoromethoxy)-4,6-dimethoxy-pyrimidin-2-yl]-6-(difluoromethyl)-7-pyrazol-1-yl-1H-indole-3-sulfonamide]
65 nM	COc1nc(NS(=O)(=O)c2c[nH]c3c(-n4cccn4)c(C(F)F)ccc23)nc(OC)c1OCC(F)F [Example 50, N-[5-(2,2-difluoroethoxy)-4,6-dimethoxy-pyrimidin-2-yl]-6-(difluoromethyl)-7-pyrazol-1-yl-1H-indole-3-sulfonamide]
94 nM	COc1nc(NS(=O)(=O)c2c[nH]c3c(-n4cccn4)c(C(F)F)ccc23)nc(OC)c1OCCF [Example 51, 6-(difluoromethyl)-N-[5-(2-fluoroethoxy)-4,6-dimethoxy-pyrimidin-2-yl]-7-pyrazol-1-yl-1H-indole-3-sulfonamide]
68 nM	COc1nc(NS(=O)(=O)c2c[nH]c3c(-n4cccn4)c(C(F)F)ccc23)nc(OC)c1CC(F)F [Example 52, N-[5-(2,2-difluoroethyl)-4,6-dimethoxy-pyrimidin-2-yl]-6-(difluoromethyl)-7-pyrazol-1-yl-1H-indole-3-sulfonamide]
25 nM	COc1nc(NS(=O)(=O)c2c[nH]c3c(-n4ccc(F)n4)c(Cl)ccc23)nc(OC)c1OCC(F)F [Example 53, 6-chloro-N-[5-(2,2-difluoroethoxy)-4,6-dimethoxy-pyrimidin-2-yl]-7-(3-fluoropyrazol-1-yl)-1H-indole-3-sulfonamide]
27 nM	COc1nc(NS(=O)(=O)c2c[nH]c3c(-n4ccc(F)n4)c(Cl)ccc23)nc(OC)c1OC(F)F [Example 54, 6-chloro-N-[5-(difluoromethoxy)-4,6-dimethoxy-pyrimidin-2-yl]-7-(3-fluoropyrazol-1-yl)-1H-indole-3-sulfonamide]
25 nM	COc1nc(NS(=O)(=O)c2c[nH]c3c(-n4ccc(F)n4)c(Cl)ccc23)nc(OC)c1CC(F)F [Example 55, 6-chloro-N-[5-(2,2-difluoroethyl)-4,6-dimethoxy-pyrimidin-2-yl]-7-(3-fluoropyrazol-1-yl)-1H-indole-3-sulfonamide]
49 nM	COc1nc(NS(=O)(=O)c2c[nH]c3c(-n4ccc(F)n4)c(Cl)ccc23)nc(OC)c1OCCF [Example 56, 6-chloro-N-[5-(2-fluoroethoxy)-4,6-dimethoxy-pyrimidin-2-yl]-7-(3-fluoropyrazol-1-yl)-1H-indole-3-sulfonamide]
85 nM	COc1nc(NS(=O)(=O)c2c[nH]c3c(-n4nccn4)c(Cl)ccc23)nc(OC)c1OC(F)(F)CF [Example 57, 6-chloro-N-[4,6-dimethoxy-5-(1,1,2-trifluoroethoxy)pyrimidin-2-yl]-7-(triazol-2-yl)-1H-indole-3-sulfonamide]
